# Columns and labels:
# [1] = target: Cathepsin-L (Homo sapiens, UniProt P07711); assay: Non-caspase enzyme assay, Cathepsin-L; type: biochemical; settings: concentrations up to 10 µM
# Experimental: (§1) Stock solutions were stored at −80 °C. […]
# (§2) Non-caspase enzyme assays
# (§3) The human pro- kallikrein-1 (pro-hK1) was activated in a buffer containing: Tris-HCl 50 mM, CaCl2 10 mM, NaCl 150 mM, Brij-35 0,05% pH 7,5. Human pro-kallikrein-6 and -8 (pro-hK6 and 8 were activated using Lysyl-endopeptidase (Wako- BioProducts®) at a 1/500 weight ratio, in a buffer containing 50 mM Tris and 0,05% Brij-35 (pH 8). Kinetics using non-caspase enzymes for selectivity studies were done according to the following conditions.
# (§4) Enzymes Substrates Buffers
# (§5) Cathepsine B (0.2 nM) z-RR-AMC 20 µM Acétate de sodium 0,1 M; EDTA 1mM ; […]
# (§6) Cathepsine L (1.2 nM) RLR-AMC 25 µM Acétate de sodium 0,1 M; EDTA 1mM ; […]
# (§7) Cathepsine D (0.1 nM) Mca-Gly-Ly s-Pro-Ile-Leu-Phe-Phe- Citrate de Sodium 0,1 M; EDTA 2 mM ; Arg-Leu-Lys(Dnp)-D-Arg-NH2 10 µM Brij-35 0,01%; pH 4 hK1 (4 nM) Boc-VPR-AMC 100µM Tris 50mM; Citrate 1M; Brij-35 0.05%; pH7 hK6 (2 nM ) Boc-QAR -AMC 100 µM Tris 50mM; Citrate 1M; Brij-35 0.05%; pH7 hK8 (1 nM) Boc-VPR-AMC 100µM Tris 50mM; Citrate 1M; Brij-35 0.05%; pH7
# (§8) Thrombine (10 mU/mL) Boc-VPR-AMC 100µM Tris 50mM; Citrate 1M; Brij-35 0.05%; pH7 Plasmine (4 nM ) Boc-QAR -AMC 100µM Tris 50mM; Citrate 1M; Brij-35 0.05%; pH7 Trypsine (0.1 nM) Boc-QAR -AMC 100µM Tris 50mM; Citrate 1M; Brij-35 0.05%; pH7
# [2] = test system: Swiss mice hippocampal neurons; assay: Aβ oligomer-induced dendritic spine loss in hippocampal primary cultures; type: cell-based, mouse; settings: 100 nM Aβ1-42 oligomers 6 h
# Experimental: For the monoculture model (MBBT4 devices), 20 × 10^3 hippocampal neurons were seeded in each chamber. For the compartmentalized coculture model (neuronal diode in MBBT5 devices), 40 × 10^3 cortical cells and 15 × 10^3 hippocampal cells were seeded in each input chamber and output chamber, respectively. The culture medium was renewed every 5 days. Microfluidic chips were placed in Petri dishes containing 0.1% EDTA (Sigma) and incubated at 37 °C in a 5% CO2 atmosphere. In the neuronal diodes, cortical axons entered the microchannels and reached the hippocampi chamber in around 4–5 days. In both the monoculture and coculture systems, cells were cultured for 3 weeks to allow high dendrites and synapse density and intense electrical firing.
# Cells were treated with caspase inhibitors and/or Aβ1–42 at 20 days in vitro. For the hippocampal monocultures, the culture medium was removed and replaced by fresh medium optionally containing 10 nM Aβ1–42 oligomers or monomers, with or without caspase inhibitors. After 6 h, cells were fixed, permeabilized, and subjected to immunolabelling. For cortico-hippocampal compartmentalized cocultures, the medium of the input chamber (cortical) was replaced by fresh medium optionally containing 100 nM Aβ1–42 oligomers or monomers, whereas the medium of the output (hippocampal) chamber was replaced by fresh medium optionally containing, or not, caspases inhibitors. […]
# Immunostaining was performed directly in microfluidic chambers as described [38]. […] Images were analyzed using ImageJ software (NIH, Bethesda, MD, USA).
# Synaptic disconnection was assessed as described [39] with slight modifications. Briefly, in hippocampal monocultures, synaptic disconnection was assessed through fluorescence microscopy by counting phalloidin clusters affixed to MAP2 and Bassoon. In cortico-hippocampal compartmentalized cocultures, synaptic disconnection was assessed by counting α-Synuclein presynaptic clusters affixed to MAP2-positive hippocampal dendrites. […] The images were similarly processed with ImageJ software before being used for quantification: the brightness/contrast of all control images were optimized manually to eliminate the background and to maximize the signal. The means of the minimum and maximum intensities were then calculated in the control condition and these settings were applied to all images. The brightness/contrast of all images was optimized manually to eliminate the background and maximize the intensity of the signal. α-synuclein/ MAP2 and Phalloidin/MAP2/Bassoon merges were then used for quantification. The number of spines was determined by counting individual clusters along ten dendritic regions (100 µm length each) in three independent experiments for every epitope. Only synapses detected on or near the neurites were included for analysis.
# [3] = target: Cathepsin-B (Homo sapiens, UniProt P07858); assay: Non-caspase enzyme assay, Cathepsin-B; type: biochemical; settings: concentrations up to 10 µM
# Experimental: as §1, §2, §3, §4, §5, §6, §7, §8
# [4] = target: T1, Plasmin (Homo sapiens, UniProt P00747); assay: Non-caspase enzyme assay, Plasmin; type: biochemical; settings: concentrations up to 10 µM
# T1 construct: The human active Plasmin, Thrombin, and Trypsin; purchased Sigma-Aldrich
# T1 sequence (P00747 581-810 limits assumed): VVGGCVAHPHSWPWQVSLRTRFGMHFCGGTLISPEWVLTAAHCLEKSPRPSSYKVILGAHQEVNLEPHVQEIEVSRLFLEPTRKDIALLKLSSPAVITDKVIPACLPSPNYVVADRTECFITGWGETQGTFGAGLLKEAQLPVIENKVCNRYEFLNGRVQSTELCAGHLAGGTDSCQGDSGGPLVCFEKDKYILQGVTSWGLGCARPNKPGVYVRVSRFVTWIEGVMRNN
# T1 sequence (P00747 97-580 partner limits assumed): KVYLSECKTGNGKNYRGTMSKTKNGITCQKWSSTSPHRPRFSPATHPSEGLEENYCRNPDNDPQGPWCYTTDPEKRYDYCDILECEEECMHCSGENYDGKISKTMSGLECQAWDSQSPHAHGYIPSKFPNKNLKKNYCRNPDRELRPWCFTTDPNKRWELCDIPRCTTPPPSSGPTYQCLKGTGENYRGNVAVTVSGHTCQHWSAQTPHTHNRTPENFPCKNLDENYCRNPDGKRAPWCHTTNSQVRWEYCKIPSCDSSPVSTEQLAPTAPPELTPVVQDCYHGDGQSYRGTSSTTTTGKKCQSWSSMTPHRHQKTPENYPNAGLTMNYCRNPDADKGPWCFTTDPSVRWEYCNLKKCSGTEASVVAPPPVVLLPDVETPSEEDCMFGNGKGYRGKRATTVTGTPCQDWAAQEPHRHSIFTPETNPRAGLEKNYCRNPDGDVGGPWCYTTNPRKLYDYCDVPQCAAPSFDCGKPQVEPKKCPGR
# Experimental: as §1, §2, §3, §4, §5, §6, §7, §8
# [5] = target: human recombinant Caspase-6 (Homo sapiens, UniProt P55212); assay: Additional enzyme kinetics, Caspase-6; settings: concentrations up to 10 µM
# human recombinant Caspase-6, sequence (P55212 24-179 limits assumed): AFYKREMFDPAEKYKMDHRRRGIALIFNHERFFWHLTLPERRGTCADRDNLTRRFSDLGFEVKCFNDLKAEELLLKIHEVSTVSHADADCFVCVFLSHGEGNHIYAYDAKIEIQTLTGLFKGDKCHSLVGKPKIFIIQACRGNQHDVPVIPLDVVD
# human recombinant Caspase-6, sequence (P55212 194-293 limits assumed): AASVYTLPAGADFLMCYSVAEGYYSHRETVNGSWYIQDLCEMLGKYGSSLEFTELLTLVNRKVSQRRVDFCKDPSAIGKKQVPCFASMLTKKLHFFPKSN
# Experimental: The human active recombinant Caspase-3 (#707-C3) was purchased from R&D Systems (Minneapolis, USA). […] Stock solutions were stored at −80 °C. […] Caspase inhibitors were solubilized in DMSO at 10 mM and stored at −80 °C.
# Initial velocity (V0) was determined from the linear portion of the progress curve. The composition of the activity buffer was: 20 mM HEPES, pH 7.4; 0.1% CHAPS, 5 mM DTT, 2 mM EDTA; 800 mM sodium succinate for Caspase-2 (0.2 nM) with 25 µM of Ac-VDVAD-7-amino-3-methylcoumarin (AMC) and 20 mM HEPES, pH 7.4; 0.1% CHAPS, 5 mM DTT, 2 mM EDTA; supplemented with 1 mg/mL of stabilizing agent bovine serum albumin (BSA) for Caspase-3 (0.1 nM) with 10 μM of Ac-DEVD-AMC. Compounds (0.001–100 µM) were tested in duplicate for each inhibitor concentration to detect their inhibitory potential. Enzymes and compounds were incubated for 30 min before initiating enzymatic reaction by adding substrate. Initial rates determined in control experiments (V0) were considered as 100% of the caspase activity; initial rates that were below 100% in the presence of tested compound (Vi) were considered as inhibition. The inhibitory activity of compounds was expressed as IC50 (Inhibitor concentration giving 50% inhibition). The values of IC50 were calculated by fitting the experimental data using Mars data Analysis 2.0 and KaleidaGraph software.1 %Inhibition=1001−Vi/V0=100I0/IC50+I0
# [6] = target: T2, Thrombin (Homo sapiens, UniProt P00734); assay: Non-caspase enzyme assay, Thrombin; type: biochemical; settings: concentrations up to 10 µM
# T2 construct: The human active Plasmin, Thrombin, and Trypsin; purchased Sigma-Aldrich
# Experimental: as §1, §2, §3, §4, §5, §6, §7, §8
# [7] = target: Cathepsin-D (Homo sapiens, UniProt P07339); assay: Non-caspase enzyme assay, Cathepsin-D; type: biochemical; settings: concentrations up to 10 µM
# Cathepsin-D, sequence (P07339 65-412): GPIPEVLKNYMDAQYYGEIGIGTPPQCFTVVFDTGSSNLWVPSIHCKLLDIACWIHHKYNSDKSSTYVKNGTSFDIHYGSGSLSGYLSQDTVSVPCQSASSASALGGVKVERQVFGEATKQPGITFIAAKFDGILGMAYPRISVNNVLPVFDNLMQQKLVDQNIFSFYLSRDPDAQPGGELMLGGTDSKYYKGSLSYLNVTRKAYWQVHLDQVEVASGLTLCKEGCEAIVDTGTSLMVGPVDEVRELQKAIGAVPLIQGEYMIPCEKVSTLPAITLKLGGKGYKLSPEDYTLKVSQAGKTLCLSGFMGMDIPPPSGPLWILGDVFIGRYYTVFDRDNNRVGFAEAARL
# Experimental: as §1, §2, §3, §4, §5, §6, §7, §8
# [8] = test system: Casp2-S1P-SREBP2 activation pathway in HEK 293 cells; assay: Casp2-dependent S1P cleavage and SREBP2 activation in transfected HEK 293 cells (WB); settings: 10 µM, 16 h
# Experimental: To test SREBP processing, HEK 293 (ATCC® CRL-1573) cells were plated at a density of 0.5 × 10^5 per well (6-well plates). The next day, 1 μg of each cDNAs were transfected using lipofectamine 3000 (Thermo Fisher Scientific, MA) according to the manufacturer’s instruction. cDNAs used were empty vector (EV), Casp2-HA, PIDD-Flag, RAIDD-His, Myc-S1P, and V5-SREBP2. After 4 h, cells were incubated in DMEM/F12 medium supplemented with indicated Casp2 inhibitors (10 μM) for 16 h. Whole-cell lysates were prepared in lysate buffer (150 mM Tris-HCl, pH 7.4, 10% sodium-deoxycholate, 100 mM NaCl, 100 mM EDTA, 100 mM PMSF, 200 mM NaF, 100 mM Na3VO4, and a mixture of protease inhibitors). […] Equal quantities of proteins were subjected to immunoblot (WB) analysis with anti-Flag (#F7425 Sigma-Aldrich), anti-HA (#1867431, Roche), anti-Casp2 (#ALX-804-356, 11B4, Enzo Life Sciences), anti-V5 monoclonal antibody (#13202, Cell Signaling Technology), anti-Casp3 (#9661, #9662, #9664, Cell Signaling Technologies), and anti-HSP90 (#sc-101494, Santa Cruz Technologies).
# HEK 293 cells were transfected with indicated plasmids in order to overexpress SREBP2, S1P, RAIDD, PIDD1, and Casp-2. […] HEK 293 cells were transfected with the indicated plasmids. […] Then, whole cell extracts (WCL) were prepared and subjected to WB analysis to detect Casp2 (through HA tag), RAIDD (through 6HIS tag), and PIDD1, PIDD1-C, PIDD1-CC (through Flag tag).
# Cathepsin-L, sequence (P07711 114-333): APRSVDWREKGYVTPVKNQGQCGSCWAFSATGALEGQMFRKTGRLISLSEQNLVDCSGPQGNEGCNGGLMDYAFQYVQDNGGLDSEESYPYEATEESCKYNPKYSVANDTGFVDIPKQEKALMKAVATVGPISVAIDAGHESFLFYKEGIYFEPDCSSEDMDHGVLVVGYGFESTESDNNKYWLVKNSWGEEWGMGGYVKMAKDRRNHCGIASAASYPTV
smiles,measurement,setting,value
CC(C)[C@H](NC(=O)c1ccc2ccccc2n1)C(=O)N[C@@H](CC(=O)O)C(=O)N[C@H](C(=O)N1CC[C@H](CC(C)(C)C)[C@@H]1C(=O)NC(CC(=O)O)C(=O)COc1c(F)cccc1F)C(C)C (stereo partly drawn) [LJ3a],effect on Cathepsin-L,[1],very limited or no effect
same,prevention of dendritic spine loss induced by oligomeric Aβ,[2]; pretreatment at 0.1 µM,59.63%
same,prevention of dendritic spine loss induced by oligomeric Aβ,[2]; pretreatment at 1 µM,89.29%
same,prevention of dendritic spine loss induced by oligomeric Aβ,[2]; pretreatment at 10 µM,97.5%
same,effect on Cathepsin-B,[3],very limited or no effect
same,effect on Plasmin,[4],very limited or no effect
same,effect on Caspase-6,[5],very limited or no effect
same,effect on Thrombin,[6],very limited or no effect
same,effect on Cathepsin-D,[7],very limited or no effect
same,S1P cleavage,[8],abolished
same,SREBP2 activation,[8],abolished
same,"impact on RAIDD, PIDD1, and Casp2 expression",[8],no significant impact

# From article PMC9666555, “Genuine selective caspase-2 inhibition with new irreversible small peptidomimetics” (Cell Death & Disease, 2022)
